According to paper PMC11481179, “Development and Application of Reversible and Irreversible Covalent Probes for Human and Mouse Cathepsin‐K Activity Detection, Revealing Nuclear Activity” (Advanced Science, 2024):

Assays:
U-87 MG cells = test: Cell viability assay (methylene blue); type: cell-based, human; details: 48 h incubation
Method: U-2 OS, U-87 MG, and enriched monocyte cells were grown at 370 C with 5% of CO2 in the
respective medium as described previously. Cells were seeded (1500 cells/well in 96 wells
plate) one day before the incubation with indicated probe or inhibitor at various concentrations.
After 48 h cells were fixed, and viability was measured by quantitative colorimetric assay using
methylene blue according to the procedure reported by Ben-Bassat et al. The data were
expressed as a percentage of control; data represent the mean of 2 experiments with triplicates
for each treatment (± standard deviation).
Fluorescent imaging of CTSK activity in lung tissue: Freshly resected human lung cancer and
normal lung tissues or mouse normal lung and primary lung cancer were embedded in OCT,
frozen in liquid nitrogen, and kept at - 80° C. Tissues were sectioned into 10 μm thick slices
using a cryostat (Leica). The slides were defrosted and washed with 1X PBS. Then the slides
were pretreated with DMSO or GD30 (5 µM) in buffer acetate for 1 h at 37° C. Afterward,
GD32 (0.75uM) or DMSO in buffer acetate were applied to the slides for 4 h at 37° C. Three
short washes with 1X PBS were done and the slides were left in 1X PBS for overnight
incubation at 4° C. The next day, slides were mounted with DAPI-Fluoromount-G® before
visualization by confocal microscopy. Olympus FV10i was used for human samples, whereas
Zeiss was used for mouse samples.
Details of the synthesis of the compounds
Synthesis of Compound (2)

Jurkat cells = test: Cathepsin labeling in intact Jurkat cells that lack mature CTSK, fluorescent SDS-PAGE; type: cell-based, human; details: probe 5 µM, up to 24 h
Method: To further corroborate the selectivity of GD32, we tested the labeling of Jurkat cells, which lack mature CTSK. Intact cells were incubated with the probe for different durations up to 24 h before they were lysed and analyzed by fluorescent SDS‐PAGE. […] These findings led us to select GD32 as a lead compound for further investigation of CTSK's activity and location in different biological and medical samples. page 8: Figure S7. Cathepsin labeling in intact Jurkat cells that lack mature CTSK. Jurkat cells were treated with GD32 or GB123 (5 µM) in a culture medium for different durations up to 24 h, followed by cell lysis, and fluorescent SDS-PAGE analysis. […] The gel was analyzed by western blot with anti CTSK antibody. While pro-CTSK is detected, indicated by the black arrow, the mature CTSK is not detected. (1 picture or pasted object on this page, not shown here)

[1] = biological target: T1, active CTSK in intact cells (MG-63, U-2 OS, U-87 MG) (Homo sapiens, UniProt P43235); test: Labeling of endogenous CTSK in intact cells, fluorescent SDS-PAGE; type: cell-based; details: probe 5 µM, fluorescent SDS PAGE method
T1 construct: ability to label endogenous CTSK activity in intact cells; endogenous in cells; host or cells: MG-63, U-2 OS, U-87 MG
T1 sequence (P43235 115-329): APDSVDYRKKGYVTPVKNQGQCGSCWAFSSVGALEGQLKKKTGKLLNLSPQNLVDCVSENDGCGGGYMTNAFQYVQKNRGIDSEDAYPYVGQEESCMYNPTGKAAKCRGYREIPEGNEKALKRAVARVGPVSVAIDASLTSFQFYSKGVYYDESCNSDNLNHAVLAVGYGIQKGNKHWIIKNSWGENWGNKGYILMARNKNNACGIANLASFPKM
Method: Figure 2 Labeling of endogenous CTSK in intact cells. a) U2‐OS cells were treated with DMSO or 5 µM of the indicated inhibitors in culture medium, for 2 h, then with indicated ABPs [5 µM] in a culture medium for indicated times, followed by cell lysis, SDS‐PAGE separation, and fluorescent scanning of the gel at 635/670 nm. An immunoblot of CTSK of the same gel is presented below. b) Intact MG63 cells were treated with GD32 5 µM in the culture media for indicated times, cell lysates were analyzed as in a. CTSK immunoblot is presented, pro and mature CTSK are indicated by arrows. c) MG63 cells and d) U87MG cells were treated with DMSO, or 5 µM of indicated inhibitors in culture medium for 2 h, followed by incubation with 5 µM of indicated probes for 5 h (GD32 and GD42) and 2 h (GB123), cell lysates were analyzed by fluorescent SDS PAGE as in a. […] Cells were incubated with 5 µM GD32 for 24 h in growth media at indicated pHs, prior to the cell lysis, cell lysates were analysed as in a. […] Input (I), immunoprecipitation (IP), and output (O) were separated by a 14% SDS‐PAGE and scanned for fluorescence. […] We further corroborated the band identity by western blot with an anti‐CTSK antibody, where the mature active CTSK is detected at the same location on the gel (Figure 2). page 6: MG63 Ex/Em 635/670 nm b) Figure S5. […] Cell lysates were analyzed as described above. […]

## C#CCNC(=O)[C@H](CC(C)C)N[C@@H](c1ccc(-c2ccc(S(=O)(=O)CCNC(=O)OC(C)(C)C)cc2)cc1)C(F)(F)F [GD30]
U-87 MG cells
  cytotoxicity: No toxicity

## C#CCNC(=O)[C@H](CC(C)C)N[C@@H](c1ccc(-c2ccc(S(=O)(=O)CCNC(=O)CCCCC[N+]3=C(/C=C/C=C/C=C4/N(C)c5ccc(S(=O)(=O)O)cc5C4(C)C)C(C)(C)c4cc(S(=O)(=O)O)ccc43)cc2)cc1)C(F)(F)F [GD32]
Jurkat cells
  fluorescent bands after labeling: no fluorescent bands were detected
U-87 MG cells
  cytotoxicity: No toxicity

## CC(C)C[C@H](N[C@@H](c1ccc(-c2ccc(S(=O)(=O)CCNC(=O)CCCCC[N+]3=C(/C=C/C=C/C=C4/N(C)c5ccc(S(=O)(=O)O)cc5C4(C)C)C(C)(C)c4cc(S(=O)(=O)O)ccc43)cc2)cc1)C(F)(F)F)C(=O)NC1(C#N)CC1 [GD37]
[1]
  detection of binding to active CTSK: could not be detected
